The results in this text go back to patent US9534008B2, “Small molecule compounds that control plant- and insect-pathogenic nematodes” (California Institute of Technology, priority 2011, dated 2017).

Assay [1] relates to C. elegans. The assay can be described thus: Ascaroside function (Table 12), C. elegans. The format is in vivo, Caenorhabditis elegans. Set-up: key to Attract Females/Herm. / Promote Dauer Formation / Attract Males: A very strong result of affecting nematode behavior is designated in the table as “strong.”. On the procedure:
(§1) Various ascarosides and ascaroside blends were administered to various nematodes described below (Table 12). […] A very strong result of affecting nematode behavior is designated in the table as “strong.”

The subject of assay [2] is Panagrellus redivivus. The assay is described as follows: Ascaroside function (Table 12), Panagrellus redivivus. The assay is classed as in vivo. As for the experimental part:
as §1

The test system of assay [3] is S. glaseri. The assay is described as follows: Ascaroside function (Table 12), S. glaseri. The assay is classed as in vivo. On the procedure:
as §1

Assay [4] has as its system several of the tested nematode species. The assay is described as follows: Retention assay, across species. The assay is classed as in vivo. As to conditions: 1 nM, 1 μM and 1 mM tested. As for the experimental part: OP50 E. coli was grown on a standard 5 cm agar plate (made with standard Nematode Growth Medium). The bacterial lawn was 16 mm in diameter and was grown overnight at 20° C. before being used in trials. Two 4 mm spots (0.6 μL) were placed on opposite sides of the bacterial lawn (using a transparent template to guide spot placement), and several minutes elapsed for the liquid to settle in before placing nematodes down on the assay. Recording began immediately upon worm placement. 0.6 μL of the control was placed on one side of the lawn, and 0.6 μL of the experimental cue was placed on the other side of the lawn, changing the location of the cue throughout trials between left/right and top/bottom to avoid bias.
Nematodes were isolated by gender at the L4 stage the day before being used in trials as developed adults. Worms were evenly divided and placed at two points equidistant from the foci of the scoring region. Trials were recorded for 20 minutes, and frames were collected for analysis at 1 frame per second. Results were averaged from at least three different trials. For every nematode species in this study, a different total number of worms (using water in both scoring regions) was tested to determine the minimum number of worms necessary for consistent unbiased results over a 20 minute trial. The total number of worms used in the multiple species assays depended on that species' optimal parameters. 10 worms were used for P. redivivus males and females, 20 worms were used for C. elegans males and O. dolichuridae males, and 14 worms were used for S. glaseri males. The Automated Software was used to compare worm occupancy in each scoring region over time, and the Chemotaxis Index (Bargmann et al., Cell 74:515-27 (1993), which is hereby incorporated by reference in its entirety) was adapted to score preference or avoidance to each ascaroside.
A video camera attached to the microscope produced a digital video stream, which was then analyzed. The ratio of the time the average worm spent in each region of interest was calculated for every trial. For ease of implementation, all worms in a single experiment were assumed to be roughly the same size. Thus worm pixels were counted instead of whole worms, allowing fractions of a worm in the region of interest to be taken into account. It also eliminated the need for a shape-based worm identification algorithm, and allowed each frame to be analyzed independently. A band-pass filter was applied to each frame to eliminate the effect of uneven lighting and also accentuate the worms against the background. The worm was then identified after thresholding the filtered image. Throughout each experiment, the locations and sizes of the regions of interest were known. Through the filtering described above, it is known which pixels are occupied by worms and which ones are not. Thus, the ratio of worm-pixels to all pixels inside the region of interest can be calculated to produce the worm-occupancy ratio. This calculation was done for every frame, giving a plot output of worm-occupancy ratio vs. time for each region.

Assay [5] concerns Meloidogyne javanica, M. floridensis, M. incognita, M. hapla. The assay can be described thus: Ascaroside function (Table 12), root-knot nematodes. As to conditions: for Dispersal (of dauer larvae, infectious juveniles) / Repel Females/Herm.: Meloidogyne javanica, M. floridensis, M. incognita, M. hapla, entries marked *; for act as dispersants and repellants in Meloidogyne species: alone, in concert, and/or in concert with ascr#9 or other ascarosides. The assay is classed as in vivo, Meloidogyne spp. On the procedure: as §1

Assay [6] has as its system Heterorhabditis bacteriophora, H. zealandica, H. floridensis. The assay is described as follows: Ascaroside function (Table 12), Heterorhabditis. The settings on record: for Dispersal (of dauer larvae, infectious juveniles) / Repel Females/Herm.: Heterorhabditis bacteriophora, H. zealandica, H. floridensis, entries marked *; for act as dispersants and repellants in Heterorhabditis: alone, in concert, and/or in concert with ascr#9 or other ascarosides. The format is in vivo, Heterorhabditis spp. On the procedure: as §1

The subject of assay [7] is C. elegans hermaphrodites and males. The assay can be described thus: Spot attraction assay. The format is in vivo. On the procedure:
The spot attraction assays were conducted according to a previously reported method (Pungaliya et al., PNAS 106:7708-13 (2009); Srinivasan et al., Nature 454:1115-18 (2008), which are hereby incorporated by reference in their entirety). For both C. elegans hermaphrodites and males, 50-60 worms were harvested daily at the fourth larval stage (L4) and stored segregatedly by sex at 20° C. overnight, to be used as young adults the following day. For the competition experiments, two conditions were used: 120 nM ascr#3 and 10 nM icas#3 (Condition 1), or 12 μM ascr#3 and 1 μM icas#3 (Condition 2) in water containing 10% ethanol. Aliquots were stored at −20° C. in 20 μL tubes. 10% ethanol in water was used as control.
Attraction assays with hbas#3 were conducted as previously reported (Srinivasan et al., Nature 454:1115-18 (2008); Pungaliya et al., Proc. Natl. Acad. Sci. U.S.A. 106:7708-13 (2009), which are hereby incorporated by reference in their entirety). For the attraction assays, 50-60 hermaphrodite worms were harvested daily at the early fourth larval stage (L4) and stored at 20° C. overnight to be used as young adults the following day. Hbas#3 was dissolved in water containing 10% ethanol. Aliquots were stored at −20° C. in 20 μL tubes. 10% ethanol in water was used as control.

Assay [8] deals with C. elegans hermaphrodites. The assay is described as follows: Quadrant chemotaxis assay. The format is in vivo. The settings on record: FIGS. 48A-B (spot attraction and quadrant chemotaxis). As for the experimental part: Chemotaxis to both non-indole and indole ascarosides was assessed on 10 cm four-quadrant petri plates (Wicks et al., Dev. Biol. 221:295-307 (2000), which is hereby incorporated by reference in its entirety). Each quadrant was separated from adjacent ones by plastic spacers (FIG. 1B). Pairs of opposite quadrants were filled with nematode growth medium (NGM) agar containing either indole ascarosides or non-indole ascarosides at different concentrations. Animals were washed gently in a S-basal buffer, placed in the center of a four-quadrant plate with ascarosides in alternating quadrants, and scored after 15 minutes and 30 minutes. A chemotaxis index was calculated as: (the number of animals on ascaroside quadrants minus the number of animals on buffer quadrants)/(total number of animals).
Chemotaxis to hbas#3 was assessed on 10 cm four-quadrant petri plates (Wicks et al., Dev. Biol. 221:295-307 (2000), which is hereby incorporated by reference in its entirety). Each quadrant was separated from adjacent ones by plastic spacers. Pairs of opposite quadrants were filled with nematode growth medium (NGM) agar containing different concentrations of hbas#3. Animals were washed gently in an S-basal buffer and placed in the center of a four-quadrant plate with ascarosides in alternating quadrants, and scored after 15 minutes and 30 minutes. A chemotaxis index was calculated as: (the number of animals on ascaroside quadrants minus the number of animals on buffer quadrants)/(total number of animals).

“Also recorded” adds a separate entry of the source.

Take `CC(=O)CC[C@@H](C)O[C@@H]1O[C@@H](C)[C@H](O)C[C@H]1O[C@@H]1O[C@H](CO)[C@@H](O)[C@H](O)[C@H]1O` [ascr#4]: in assay [1], the “Promote Dauer Formation” value is “ascr#4”.
Consider `C[C@@H]1O[C@@H](OCCC(=O)O)[C@H](O)C[C@H]1O` [ascr#5], for which, in assay [1], the “Promote Dauer Formation” value was “([strong])” and the “Repel Females/Herm.” value is recorded as “ascr#5”.
For the compound `C[C@H](CC/C=C/C(=O)O)O[C@@H]1O[C@@H](C)[C@H](O)C[C@H]1O` [ascr#7], the “Attract Males” value in assay [2], in assay [1] and in assay [3] was “ascr#7” in each case. Besides, in assay [4], the “preference for areas conditioned by ascaroside” value is reported as “preferred”.
Turning to `CC1O[C@@H](O[C@H](C)CCCCCCC(=O)O)C(O)C[C@H]1O` (some centres unmarked) [ascr#10], the “Attract Males” value in assay [2] is reported as “ascr#10”. Further, the “Attract Males” value in assay [1] is recorded as “ascr#10”. Moreover, the “Attract Males” value in assay [3] was “ascr#10”. The “preference for areas conditioned by ascaroside” value in assay [4] is “preferred”. In assay [5], the “Dispersal (of dauer larvae, infectious juveniles)” value (“Dispersal” for short) is recorded as “ascr#10*”; the “Repel Females/Herm.” value is on record as “ascr#10*”; the “act as dispersants and repellants in Meloidogyne species” value (from here on “act … in Meloidogyne species”) was “dispersants and repellants”.
For the compound `CC1OC(O[C@H](C)CCCCCCCC(=O)O)C(O)CC1O` (some centres unmarked) [ascr#16], in assay [5], the “Dispersal” value is given as “ascr#16*”; the “Repel Females/Herm.” value is on record as “ascr#16*”; the “act … in Meloidogyne species” value was “dispersants and repellants”.
For `CC1OC(O[C@H](C)CCCCCCCCC(=O)O)C(O)CC1O` (some centres unmarked) [ascr#18], in assay [6], the “Dispersal” value is given as “ascr#18*”; the “Repel Females/Herm.” value is recorded as “ascr#18*”; the “act as dispersants and repellants in Heterorhabditis” value was “dispersants and repellants”. Moreover, in assay [5], the “Dispersal” value is listed as “ascr#18*”; the “Repel Females/Herm.” value was “ascr#18*”; the “act … in Meloidogyne species” value is “dispersants and repellants”.
For the compound `CC1OC(O[C@H](C)CCCCCCCCCC(=O)O)C(O)CC1O` (some centres unmarked) [ascr#20], in assay [5], the “Dispersal” value was “ascr#20*”; the “Repel Females/Herm.” value is “ascr#20*”; the “act … in Meloidogyne species” value was “dispersants and repellants”.
Regarding `C[C@H](CCCCCCCCCCC(=O)O)O[C@@H]1O[C@@H](C)[C@H](O)C[C@H]1O` [ascr#22], in assay [6], the “Dispersal” value is reported as “ascr#22*”; the “Repel Females/Herm.” value is given as “ascr#22*”; the “act as dispersants and repellants in Heterorhabditis” value was “dispersants and repellants”. In assay [5], the “Dispersal” value was “ascr#22*”; the “Repel Females/Herm.” value is “ascr#22*”; the “act … in Meloidogyne species” value was “dispersants and repellants”.
Regarding `C[C@H](CCCC/C=C/C(=O)O)O[C@@H]1O[C@@H](C)[C@H](OC(=O)c2ccc(O)cc2)C[C@H]1O` [hbas#3, (8R)-(3′R-Hydroxy-5′R-(4-hydroxybenzoyloxy)-6′S-methyl-(2H)-tetrahydropyran-2′-yloxy)non-(2E)-enoic acid], in assay [7] (dose dependent manner), the “attraction of wild-type (N2) hermaphrodites” value is “attracted”. Further, in assay [1], the “Attract Females/Herm.” value was “([very” and the “Attract Males” value is “([strong])”. Besides, in assay [8], the “concentration at which C. elegans is strongly attracted (as low as)” value was not above 10 femtomolar.
In the case of `C[C@H](CCCCC(=O)O)O[C@@H]1O[C@@H](C)[C@H](OC(=O)c2c[nH]c3ccccc23)C[C@H]1O` [icas#1], in assay [7] (high concentrations, 1 μmol, N2 hermaphrodites and him-5 males), the “attraction of both C. elegans sexes” value is “attractive; also recorded: attracted”. For the same compound, in assay [1], the “Attract Females/Herm.” value is “([strong])” and the “Attract Males” value was “([strong])”.
As for `C[C@@H]1O[C@@H](OCCCCC(=O)O)[C@H](O)C[C@H]1O` [oscr#9, 5-(3′R,5′R-Dihydroxy-6′S-methyl-(2H)-tetrahydropyran-2′-yloxy)pentanoic acid], in assay [2], the “Attract Males” value is “oscr#9”.
Take `CC1O[C@@H](OCCCCCCCCC(=O)O)C(O)C[C@H]1O` (stereo partly drawn) [oscr#10, 9-(3′R,5′R-Dihydroxy-6′S-methyl-(2H)-tetrahydropyran-2′-yloxy)nonanoic acid]: the “Repel Males” value in assay [2] is “oscr#10”.
